Experimental data from publication PMC12741935 (Alzheimer's & Dementia, 2025).

Assay: In vivo PK in CD-1 mice, plasma and brain by LC-MS/MS
Settings: for Mean concentration in brain: ± SD, n=3; for AUC(0-inf): AUCInf
Experimental: Initial in vivo PK studies to confirm oral bioavailability and brain exposure were conducted at Pharmaron (Beijing, China) in non‐fasted male CD‐1 mice (6–8 weeks of age; sourced from Vital River). […] The dose volume was 10 mL/kg.
Next, we evaluated brain and plasma PK of 10 mg/kg (1 hour pre, IP, n = 3). Experiments then were conducted to confirm and extend initial PK data and evaluate brain and plasma levels at doses of 1, 10, and 100 mg/kg after oral administration at 1, 3, and 8 hours post dose (n = 3 per dose per timepoint).
Serial blood was collected via the dorsal metatarsal vein into ethylenediaminetetraacetic acid‐K2 coated tubes and centrifuged at 4°C x 4000 g for 5 minutes to obtain plasma that was aliquoted and stored at −80°C until analysis. For terminal studies, blood was collected via cardiac puncture under isoflurane anesthesia. Whole brain was homogenized at a ratio of 1:3 with PBS (W:V, 1:3).
For sample analysis liquid chromatography tandem mass spectrometry (LC‐MS/MS) was conducted using an AB Sciex Triple Quad 5500 LC/MS/MS instrument. Briefly, the desired serial concentrations of working solutions were achieved by diluting stock solution of analyte with 50% acetonitrile in water solution. Ten µL of working solutions (0.5, 1, 2, 5, 10, 50, 100, 500, and 1000 ng/mL) were added to 10 µL of the blank CD1 mouse plasma/brain homogenate to achieve calibration standards of 0.5 to 1000 ng/mL (0.5, 1, 2, 5, 10, 50, 100, 500, and 1000 ng/mL) in a total volume of 20 µL. Five quality control (QC) samples at 1 ng/mL, 2 ng/mL, 5 ng/mL, 50 ng/mL, and 800 ng/mL for plasma/brain homogenate were prepared independently of those used for the calibration curves. These QC samples were prepared on the day of analysis in the same way as calibration standards. Twenty µL standards, 20 µL QC samples, and 20 µL unknown samples (10 µL plasma/brain homogenate with 10 µL blank solution) were added to 200 µL of acetonitrile containing internal standard (IS) mixture for precipitating protein, respectively. The samples were vortexed for 30 seconds followed by centrifugation at 4°C x 2600 g for 15 minutes. The supernatant was diluted at a ratio of 1:2 with H2O (V/V, 1:2), 5 µL of diluted supernatant was injected into the LC‐MS/MS system for quantitative analysis. The lower limit of quantification (LLOQ) was 0.5 ng/mL for plasma and 1 ng/mL for brain. PK parameters were estimated by non‐compartmental model analysis using WinNonlin 8.3.

[1] = male, CD-1, mouse, brain, oral, 10 mg/kg
[2] = male, CD-1, mouse, brain, oral, 100 mg/kg
[3] = male, CD-1, mouse, brain, po, 10 mg/kg, 10 mg/kg PO
[4] = male, CD-1, mouse, brain, po, 100 mg/kg, 100 mg/kg PO
[5] = male, CD-1, mouse, plasma, ip, 10 mg/kg, 10 mg/kg IP, sampling 0.5, 1, 3, 5 h
[6] = male, CD-1, mouse, plasma, po, 1 mg/kg, 1 mg/kg PO
[7] = male, CD-1, mouse, plasma, po, 10 mg/kg, 10 mg/kg PO, sampling 0.5, 1, 3, 5 h
[8] = male, CD-1, mouse, plasma, po, 10 mg/kg, 10 mg/kg PO, sampling 1, 3, 8 h
[9] = male, CD-1, mouse, plasma, po, 100 mg/kg, 100 mg/kg PO
[10] = plasma, 10 mg/kg IP, sampling 0.5, 1, 3, 5 h
[11] = plasma, 10 mg/kg PO, sampling 0.5, 1, 3, 5 h
[12] = plasma, 10 mg/kg PO, sampling 1, 3, 8 h

CC(C)NC(=O)N1CC[C@H](NC2=Nc3cc(F)ccc3N(CC(F)F)c3ccc(Cl)cc32)C1 [NVS‐PAK1‐1, (S)‐3‐([2‐chloro‐5‐(2,2‐difluoroethyl)‐8‐fluoro‐5H‐dibenzo[b,e][1,4]diazepin‐11‐yl]amino)‐N‐isopropylpyrrolidine‐1‐carboxamide]
Mean concentration in brain (1 mg/kg PO, 1 h post dose): BLOQ
Mean concentration in brain (1 mg/kg PO, 3 h post dose): BLOQ
Mean concentration in brain (1 mg/kg PO, 8 h post dose): BLOQ
concentration in brain (1 mg/kg PO, at 1, 3 and 8 hours post dose): < 1 ng/mL
Mean concentration in brain (10 mg/kg PO, 8 h post dose): BLOQ
Mean concentration in brain (100 mg/kg PO, 8 h post dose): detectable
AUC_%Extrap_obs (brain, 10 mg/kg PO): 15.3%
AUClast/D (brain, 10 mg/kg PO): 5.74 h·ng/mL per mg/kg
AUC_%Extrap_obs (brain, 100 mg/kg PO): 1.34%
AUClast/D (brain, 100 mg/kg PO): 13.8 h·ng/mL per mg/kg
concentration at 1 h (male, CD-1, mouse, brain, intraperitoneal, 10 mg/kg): 112 ± 14 ng/g
concentration at 1 h [1]: 33.2 ± 13 ng/g
concentration at 3 h [1]: 7.62 ± 1.16 ng/g
concentration at 1 h [2]: 759 ± 379 ng/g
concentration at 3 h [2]: 61.6 ± 3.5 ng/g
concentration at 8 h [2]: 14.3 ± 5.4 ng/g
AUC(0-inf) [3]: 67.8 ng·h/mL
AUC(0-t) (male, CD-1, mouse, brain, po, 10 mg/kg, AUClast, 10 mg/kg PO): 57.4 ng·h/mL
Cmax [3]: 33.2 ng/mL
MRT inf (male, CD-1, mouse, brain, po, 10 mg/kg, MRTInf_obs, 10 mg/kg PO): 1.74 h
half-life (male, CD-1, mouse, brain, po, 10 mg/kg, T1/2, brain, 10 mg/kg PO): 0.942 h
Tmax [3]: 1 h
AUC(0-inf) [4]: 1400 ng·h/mL
AUC(0-t) (male, CD-1, mouse, brain, po, 100 mg/kg, AUClast, 100 mg/kg PO): 1380 ng·h/mL
Cmax [4]: 759 ng/mL
half-life (male, CD-1, mouse, brain, po, 100 mg/kg, T1/2, brain, 100 mg/kg PO): 1.23 h
Tmax [4]: 1 h
Kp at 1 h (male, CD-1, mouse, brain/plasma, ip, 10 mg/kg): 0.25
Kp (male, CD-1, mouse, brain/plasma, po, 10 mg/kg): 0.21
Kp (male, CD-1, mouse, brain/plasma, po, 100 mg/kg): 0.302
AUC(0-t) (male, CD-1, mouse, in vivo, po, 1 mg/kg): 27.2 ng·h/mL
MRT inf (male, CD-1, mouse, in vivo, po, 100 mg/kg): 1.56 h
concentration at 1 h (male, CD-1, mouse, plasma, intraperitoneal, 10 mg/kg): 448 ± 65 ng/mL
AUC(0-inf) [5]: 1170 ng·h/mL
AUC(0-t) (male, CD-1, mouse, plasma, ip, 10 mg/kg, AUClast, 10 mg/kg IP, sampling 0.5, 1, 3, 5 h): 1150 ng·h/mL
Cmax [5]: 878 ng/mL
MRT inf (male, CD-1, mouse, plasma, ip, 10 mg/kg, MRTInf_obs, 10 mg/kg IP, sampling 0.5, 1, 3, 5 h): 1.1 h
half-life (male, CD-1, mouse, plasma, ip, 10 mg/kg, T1/2, plasma, 10 mg/kg IP, sampling 0.5, 1, 3, 5 h): 0.814 h
Tmax [5]: 0.5 h
AUC(0-inf) [6]: 31.6 ng·h/mL
Cmax [6]: 8.1 ng/mL
MRT inf (male, CD-1, mouse, plasma, po, 1 mg/kg, MRTInf_obs, 1 mg/kg PO): 3.92 h
half-life (male, CD-1, mouse, plasma, po, 1 mg/kg, T1/2, plasma, 1 mg/kg PO): 2.62 h
Tmax [6]: 1 h
AUC(0-inf) [7]: 252 ng·h/mL
AUC(0-inf) [8]: 280 ng·h/mL
AUC(0-t) (male, CD-1, mouse, plasma, po, 10 mg/kg, AUClast, 10 mg/kg PO, sampling 0.5, 1, 3, 5 h): 223 ng·h/mL
AUC(0-t) (male, CD-1, mouse, plasma, po, 10 mg/kg, AUClast, 10 mg/kg PO, sampling 1, 3, 8 h): 274 ng·h/mL
Cmax [7]: 130 ng/mL
Cmax [8]: 112 ng/mL
MRT inf (male, CD-1, mouse, plasma, po, 10 mg/kg, MRTInf_obs, 10 mg/kg PO, sampling 0.5, 1, 3, 5 h): 2.19 h
MRT inf (male, CD-1, mouse, plasma, po, 10 mg/kg, MRTInf_obs, 10 mg/kg PO, sampling 1, 3, 8 h): 2.1 h
half-life (male, CD-1, mouse, plasma, po, 10 mg/kg, T1/2, plasma, 10 mg/kg PO, sampling 0.5, 1, 3, 5 h): 1.56 h
half-life (male, CD-1, mouse, plasma, po, 10 mg/kg, T1/2, plasma, 10 mg/kg PO, sampling 1, 3, 8 h): 1.4 h
Tmax [7]: 0.5 h
Tmax [8]: 1 h
AUC(0-inf) [9]: 4720 ng·h/mL
AUC(0-t) (male, CD-1, mouse, plasma, po, 100 mg/kg, AUClast, 100 mg/kg PO): 4570 ng·h/mL
Cmax [9]: 2330 ng/mL
MRT inf (male, CD-1, mouse, plasma, po, 100 mg/kg, MRTInf_obs, 100 mg/kg PO): 1.91 h
half-life (male, CD-1, mouse, plasma, po, 100 mg/kg, T1/2, plasma, 100 mg/kg PO): 1.5 h
Tmax [9]: 1 h
AUC_%Extrap_obs (plasma, 1 mg/kg PO): 14.0%
AUClast/D (plasma, 1 mg/kg PO): 27.2 h·ng/mL per mg/kg
AUC_%Extrap_obs [10]: 1.62%
AUClast/D [10]: 115 h·ng/mL per mg/kg
AUC_%Extrap_obs [11]: 11.3%
AUClast/D [11]: 22.3 h·ng/mL per mg/kg
AUC_%Extrap_obs [12]: 2.29%
AUClast/D [12]: 27.4 h·ng/mL per mg/kg
AUC_%Extrap_obs (plasma, 100 mg/kg PO): 3.08%
AUClast/D (plasma, 100 mg/kg PO): 45.7 h·ng/mL per mg/kg
